Data reported in the supplement of paper PMC10307832.

Legend:
Test in all cases: relative viability (nuclei count vs DMSO), 5 days (fraction); higher = more cells survive
Zebularine + Foretinib = compound: O=c1ncccn1[C@@H]1O[C@H](CO)[C@@H](O)[C@H]1O [Zebularine] + COc1cc2c(Oc3ccc(NC(=O)C4(C(=O)Nc5ccc(F)cc5)CC4)cc3F)ccnc2cc1OCCCN1CCOCC1 [Foretinib] (partner 0.25 µM)
How it was run: (§1)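 Five library-drug doses in √10 steps were combined with a fixed anchor-drug dose, or a single drug was given alone, by pin tool to lung cancer cell lines in 1536-well plates the day after seeding. Nuclei were stained and counted after 5 days. Relative viability is the nuclei count in treated wells over that in vehicle wells, taken as the median of duplicate plates.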

BI-D1870 + Dasatinib = compound: CC(C)CCN1c2nc(Nc3cc(F)c(O)c(F)c3)ncc2N(C)C(=O)C1C [BI-D1870] + Cc1nc(Nc2ncc(C(=O)Nc3c(C)cccc3Cl)s2)cc(N2CCN(CCO)CC2)n1 [Dasatinib] (partner 0.075 µM)
How it was run: as §1

BI-D1870 + Bortezomib = compound: CC(C)CCN1c2nc(Nc3cc(F)c(O)c(F)c3)ncc2N(C)C(=O)C1C [BI-D1870] + CC(C)C[C@H](NC(=O)[C@H](Cc1ccccc1)NC(=O)c1cnccn1)B(O)O [Bortezomib] (partner 0.002 µM)
How it was run: as §1

Zebularine + Trametinib = compound: O=c1ncccn1[C@@H]1O[C@H](CO)[C@@H](O)[C@H]1O [Zebularine] + CC(=O)Nc1cccc(-n2c(=O)n(C3CC3)c(=O)c3c(Nc4ccc(I)cc4F)n(C)c(=O)c(C)c32)c1 [Trametinib] (partner 0.02 µM)
How it was run: as §1

| Cell Line | relative viability (Zebularine + Foretinib; first compound 1 µM) | relative viability (Zebularine + Foretinib; first compound 3.162 µM) | relative viability (Zebularine + Foretinib; first compound 10 µM) | relative viability (Zebularine + Foretinib; first compound 31.62 µM) | relative viability (Zebularine + Foretinib; first compound 100 µM) | relative viability (BI-D1870 + Dasatinib; first compound 0.04 µM) | relative viability (BI-D1870 + Dasatinib; first compound 0.1265 µM) | relative viability (BI-D1870 + Dasatinib; first compound 0.4 µM) | relative viability (BI-D1870 + Dasatinib; first compound 1.265 µM) | relative viability (BI-D1870 + Dasatinib; first compound 4 µM) | relative viability (BI-D1870 + Bortezomib; first compound 0.04 µM) | relative viability (BI-D1870 + Bortezomib; first compound 0.1265 µM) | relative viability (BI-D1870 + Bortezomib; first compound 0.4 µM) | relative viability (BI-D1870 + Bortezomib; first compound 1.265 µM) | relative viability (BI-D1870 + Bortezomib; first compound 4 µM) | relative viability (Zebularine + Trametinib; first compound 1 µM) | relative viability (Zebularine + Trametinib; first compound 3.162 µM) | relative viability (Zebularine + Trametinib; first compound 10 µM) | relative viability (Zebularine + Trametinib; first compound 31.62 µM) | relative viability (Zebularine + Trametinib; first compound 100 µM) |
| --- | --- | --- | --- | --- | --- | --- | --- | --- | --- | --- | --- | --- | --- | --- | --- | --- | --- | --- | --- | --- |
| NCI-H838 | 1.08 | 1.03 | 0.705 | 0.698 | 0.322 | 0.342 | 0.244 | 0.314 | 0.274 | 0.243 | 0.901 | 0.72 | 0.747 | 1.14 | 0.768 | 0.58 | 0.537 | 0.415 | 0.437 | 0.231 |
| NCI-H1755 | 0.925 | 0.918 | 0.854 | 0.992 | 0.591 | 0.511 | 0.408 | 0.407 | 0.567 | 0.442 | 1.07 | 0.921 | 0.949 | 1.09 | 0.937 | 0.885 | 0.766 | 0.726 | 0.761 | 0.61 |
| HCC-78 | 0.523 | 0.547 | 0.53 | 0.584 | 0.477 | 0.362 | 0.382 | 0.422 | 0.442 | 0.33 | 0.545 | 0.402 | 0.492 | 0.56 | 0.42 | 0.893 | 0.742 |  | 0.794 | 0.436 |
| IA-LM | 1.1 | 1.14 |  | 1.34 | 0.877 |  |  |  |  |  | 1.05 | 0.842 | 0.756 | 0.764 | 0.204 |  |  |  |  |  |
| NCI-H322M | 0.914 | 0.945 | 0.645 | 0.773 | 0.647 | 0.236 | 0.27 | 0.234 | 0.234 | 0.283 | 1.23 | 1.24 | 1.22 | 1.14 | 1.06 | 0.489 | 0.515 | 0.481 | 0.551 | 0.509 |
| NCI-H3122 | 1.02 | 0.939 |  | 1.02 | 0.969 | 0.845 | 0.744 | 0.834 | 0.955 | 0.92 | 1 | 0.932 | 1.05 | 1.03 | 0.996 | 0.268 | 0.294 | 0.22 | 0.283 | 0.251 |
| COR-L23 | 1.11 | 0.98 | 0.621 | 0.513 | 0.157 | 0.58 | 0.414 | 0.504 | 0.565 | 0.434 | 1.28 | 0.844 | 0.979 | 0.926 | 1.03 | 0.642 | 0.602 | 0.463 | 0.575 | 0.241 |
| NCI-H1793 | 0.685 | 0.84 |  | 0.573 | 0.207 | 0.423 | 0.334 | 0.396 | 0.39 | 0.309 |  |  |  |  |  | 0.466 | 0.477 | 0.257 | 0.269 | 0.21 |
| NCI-H1792 |  |  |  |  |  | 0.841 | 0.68 | 0.599 | 0.829 | 0.645 | 1.03 | 0.915 | 0.942 | 1.13 | 0.841 | 0.472 | 0.351 | 0.187 | 0.176 | 0.182 |
| NCI-H2342 | 1.33 | 1.07 | 0.802 | 0.953 | 0.748 | 0.333 | 0.313 | 0.315 | 0.329 | 0.406 |  |  |  |  |  | 0.891 | 0.768 | 0.751 | 0.756 | 0.712 |
| NCI-H1299 | 1.12 | 1.05 | 0.947 | 1.11 | 0.549 |  |  |  |  |  | 1 | 0.985 | 1.02 | 0.959 | 0.839 |  |  |  |  |  |
| SW 900 | 1.28 | 0.633 | 0.545 | 0.762 | 0.498 | 0.66 | 0.456 | 0.662 | 0.499 | 0.338 |  |  |  |  |  | 0.759 | 0.789 |  | 0.899 | 1.15 |
| SK-MES-1 | 1.12 | 0.828 | 0.794 | 0.742 | 0.337 | 0.44 | 0.369 | 0.323 | 0.362 | 0.3 |  |  |  |  |  | 0.558 | 0.581 | 0.491 | 0.503 | 0.305 |
| NCI-H1648 |  |  |  |  |  |  |  |  |  |  |  |  |  |  |  | 0.628 | 0.469 | 0.435 | 0.421 | 0.419 |
| NCI-H522 |  |  |  |  |  | 0.91 | 0.874 | 0.777 | 0.99 | 0.926 |  |  |  |  |  | 0.815 | 0.704 | 0.667 | 0.758 | 0.723 |
| LK-2 | 1.33 | 1.08 | 0.529 | 0.756 | 0.403 | 0.442 | 0.359 | 0.239 | 0.241 | 0.281 |  |  |  |  |  | 0.626 | 0.669 | 0.476 | 0.459 | 0.441 |
| NCI-H1395 | 0.852 | 0.961 | 0.772 | 0.608 | 0.445 | 0.471 | 0.432 | 0.428 | 0.359 | 0.384 |  |  |  |  |  | 1.15 | 1.05 | 0.966 | 0.767 | 0.62 |
| A549 | 0.898 | 0.996 | 0.743 | 0.855 | 0.0887 |  |  |  |  |  |  |  |  |  |  |  |  |  |  |  |
| NCI-H2170 | 0.983 | 1.02 | 0.909 | 0.98 | 0.611 | 0.735 | 0.584 | 0.529 | 0.54 | 0.575 |  |  |  |  |  | 0.931 | 0.919 | 0.677 | 0.874 | 0.441 |
| NCI-H1563 | 0.915 | 0.952 | 0.922 | 0.991 | 0.898 | 0.456 | 0.434 | 0.425 | 0.506 | 0.477 | 0.908 | 0.81 | 0.802 | 0.852 | 0.784 |  |  |  |  |  |
| ABC-1 | 1.16 | 1.11 | 0.681 | 0.783 | 0.473 | 0.598 | 0.53 |  | 0.577 | 0.409 | 0.306 | 0.353 | 0.232 | 0.298 | 0.244 |  |  |  |  |  |
